Measured values published in PubChem BioAssay (NCI).
“And” between values parts separate entries of the source, which are not always exact repeats. Equal values may be shown once.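 Following 48 hours of exposure in 96-well plates, responses at five concentrations were used to interpolate endpoints linearly. At the GI50, growth is halved. At the TGI there is no net growth.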 Where a SMILES comes first, the peptide text is derived from it. [ ]: non-standard residue; d: D form. The star is where a group is joined. ξ: configuration not given here. NMeF = CN[C@@H](Cc1ccccc1)C(=O)O; NMeN = CN[C@@H](CC(N)=O)C(=O)O; NMeV = CN[C@H](C(=O)O)C(C)C; ξNMeV = CNC(C(=O)O)C(C)C; Boc = CC(C)(C)OC(=O)*; ξNMeA = CNC(C)C(=O)O; ξV = CC(C)C(N)C(=O)O

Legend:
Experiment in all cases: DTP human tumour cell line panel, 48 h
COLO 205 colon = system: COLO 205 colon
TK-10 renal = system: TK-10 renal
EKVX NSCLC = system: EKVX NSCLC
SNB-78 CNS = system: SNB-78 CNS
SN12C renal = system: SN12C renal
SK-MEL-28 melanoma = system: SK-MEL-28 melanoma
IGROV1 ovarian = system: IGROV1 ovarian
MCF7 breast = system: MCF7 breast
HT29 colon = system: HT29 colon
HOP-62 NSCLC = system: HOP-62 NSCLC
SK-MEL-2 melanoma = system: SK-MEL-2 melanoma
BT-549 breast = system: BT-549 breast
HCT-15 colon = system: HCT-15 colon
NCI/ADR-RES ovarian = system: NCI/ADR-RES ovarian
HCC-2998 colon = system: HCC-2998 colon
OVCAR-3 ovarian = system: OVCAR-3 ovarian
RXF 393 renal = system: RXF 393 renal
SR leukemia = system: SR leukemia
MALME-3M melanoma = system: MALME-3M melanoma
HL-60(TB) leukemia = system: HL-60(TB) leukemia
786-0 renal = system: 786-0 renal
DU-145 prostate = system: DU-145 prostate
MDA-MB-435 = system: MDA-MB-435
ACHN renal = system: ACHN renal
SW-620 colon = system: SW-620 colon
NCI-H460 lung = system: NCI-H460 lung
UO-31 renal = system: UO-31 renal
HOP-92 NSCLC = system: HOP-92 NSCLC
OVCAR-8 ovarian = system: OVCAR-8 ovarian
SK-OV-3 ovarian = system: SK-OV-3 ovarian
KM20L2 colon = system: KM20L2 colon
UACC-62 melanoma = system: UACC-62 melanoma
OVCAR-4 ovarian = system: OVCAR-4 ovarian

COC(=O)C(C)N(C)C(=O)[C@H](CC(N)=O)N(C)C(=O)[C@@H]1CCCN1C(=O)[C@H](C(C)C)N(C)C(=O)C(C(C)C)N(C)C(=O)[C@H](Cc1ccccc1)N(C)C(=O)C(NC(=O)OC(C)(C)C)C(C)C (stereo partly drawn) (Boc-[ξV][NMeF][ξNMeV][NMeV]P[NMeN][ξNMeA]-OMe)
GI50 (COLO 205 colon): 17.5 µM | TGI (COLO 205 colon): 50 µM and 35.6 µM | GI50 (TK-10 renal): 18.4 µM | TGI (TK-10 renal): 50 µM and 51.8 µM | GI50 (EKVX NSCLC): 23.7 µM | TGI (EKVX NSCLC): > 50 µM and 61.5 µM | TGI (SNB-78 CNS): 40.4 µM | GI50 (SN12C renal): 17.4 µM | TGI (SN12C renal): 50 µM and 33.5 µM | TGI (SK-MEL-28 melanoma): 50 µM and 30.5 µM | GI50 (IGROV1 ovarian): 16.2 µM | TGI (IGROV1 ovarian): 50 µM and 29.8 µM | TGI (MCF7 breast): 50 µM | GI50 (HT29 colon): 23.4 µM | TGI (HT29 colon): 50 µM and 57.7 µM | GI50 (HOP-62 NSCLC): 19.1 µM | TGI (HOP-62 NSCLC): 31.5 µM and 38.8 µM | TGI (SK-MEL-2 melanoma): 20.1 µM and 22.9 µM | TGI (BT-549 breast): 32.3 µM | GI50 (HCT-15 colon): 29.8 µM | TGI (HCT-15 colon): 50 µM and > 100 µM | TGI (NCI/ADR-RES ovarian): > 50 µM | GI50 (HCC-2998 colon): 16.7 µM | TGI (HCC-2998 colon): 50 µM and 31.1 µM | GI50 (OVCAR-3 ovarian): 17.1 µM | TGI (OVCAR-3 ovarian): 50 µM and 31.2 µM | TGI (RXF 393 renal): 29.8 µM | GI50 (SR leukemia): 0.005 µM | TGI (SR leukemia): 50 µM and 21.6 µM | TGI (MALME-3M melanoma): 32.5 µM | GI50 (HL-60(TB) leukemia): 4.54 µM | TGI (HL-60(TB) leukemia): 44.7 µM and 17.4 µM | GI50 (786-0 renal): 29.7 µM | TGI (786-0 renal): 50 µM and > 100 µM | TGI (DU-145 prostate): 50 µM | TGI (MDA-MB-435): 50 µM | GI50 (ACHN renal): > 100 µM | TGI (ACHN renal): > 100 µM | GI50 (SW-620 colon): 13 µM | TGI (SW-620 colon): 50 µM and 25.7 µM | GI50 (NCI-H460 lung): 17.4 µM | TGI (NCI-H460 lung): 50 µM and 39 µM | GI50 (UO-31 renal): 17.3 µM | TGI (UO-31 renal): 50 µM and 31.1 µM | GI50 (HOP-92 NSCLC): 14.6 µM | TGI (HOP-92 NSCLC): 50 µM and 27.8 µM | TGI (OVCAR-8 ovarian): 31.3 µM | GI50 (SK-OV-3 ovarian): 29.4 µM | TGI (SK-OV-3 ovarian): 50 µM and > 100 µM | TGI (KM20L2 colon): > 100 µM | GI50 (UACC-62 melanoma): 17.5 µM | TGI (UACC-62 melanoma): 20.3 µM and 36.8 µM | GI50 (OVCAR-4 ovarian): 31.1 µM
